Where a SMILES comes first, the peptide text is derived from it. Where no end group is shown, it is not given here.
Columns and labels:
sheep red blood cells = conditions: red cells of sheep, 1 h
Procedure: Freshly collected sheep blood was centrifuged at 3000 rpm for 10 min, and the supernatant was removed. The pellet was washed and resuspended with normal saline water to produce a 2% blood cell solution. Then, 400 μL of peptide solution was added to 100 μL of 2% blood cell solution to achieve final peptide concentrations of 8, 16, 32, 64, and 128 μg/mL. Normal saline water and Triton X‐100 normal saline solution (2%) were used as negative and positive controls, respectively. The samples were incubated in a water bath at 37°C for 1 h, followed by centrifugation at 3000 rpm for 10 min. Then, 200 μL of the supernatant was transferred to a 96‐well plate, and OD values were measured at a wavelength of 545 nm. The hemolysis rate of each sample was calculated using the following formula: Hemolysis ratio=OD545(experimental)−OD545(negative control)/OD545(positive control)−OD545(negative control)×100%.

[1] = tested on: human normal colon epithelial cells (NCM-460); format: cell-based; conditions: 48 h
Procedure: Human normal colon epithelial cells (NCM‐460) were purchased from the BeNa Culture Collection. Cytotoxicity was measured using the 3‐[4,5‐dimethylthiazol‐2‐yl]−2,5 diphenyl tetrazolium bromide (MTT) assay. The NCM‐460 cells were cultured in the Dulbecco's modified Eagle's medium (DMEM)‐H complete culture medium (90% DMEM‐H, 10% FBS, 10,000 U/mL penicillin, and 10,000 μg/mL streptomycin) to logarithmic growth phase. The suspension of cells was prepared at 10^5 cells/100 μL/well in a 96‐well plate. The peptides selected for the assay were dissolved in the DMEM‐H medium to prepare a 25 mg/mL stock solution, diluted for multiple gradients of 4–512 μg/mL. Afterwards, the peptides that had been diluted (100 μL/well) were introduced into the cells residing on a 96‐well plate. The DMEM‐H medium served as the blank group, the cell suspension as the control group, and the cell suspension combined with the peptide as the experimental group. Each group was conducted in three separate replicates. After 48 h of culture, 10 μL MTT was added to each well and incubated further at 37°C for 4 h. Then 100 μL Formazan solution was added and incubated further at 37°C for 4 h until all the purple crystals were dissolved. The absorbances were measured at OD570. Cell viability was determined by calculating cell viability using the following formula. Cell viability=OD570(experimental)−OD570(blank)/OD570(control)−OD570(blank)×100%.
Then, the CC50 value of each AMP molecule was calculated using an online tool: https://www.aatbio.com/tools/ic50-calculator.

[2] = tested on: Vibrio alginolyticus xv22; test: Antibacterial screen at 200 μg/mL (cell density vs control); format: cell-based; conditions: peptide 200 μg/mL, CAMHB, 5 × 10^5 CFU/mL, 37°C, 12 h, OD600; control (no AMP) = 1; three biological replicates
How it was run: (§1)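 For the MIC, the lowest peptide concentration without visible bacterial growth was recorded. Density screening used log-phase cells diluted to 5 × 10^5 CFU/mL in CAMHB with 200 μg/mL peptide, OD600 measured after 12 h incubation at 37°C.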

[3] = tested on: Staphylococcus aureus ATCC 12600; test: as above; format: cell-based; conditions: peptide 200 μg/mL, CAMHB, 5 × 10^5 CFU/mL, 37°C, 12 h, OD600; control (no AMP) = 1; three biological replicates
How it was run: as §1

[4] = tested on: Acinetobacter baumannii ATCC 19606; test: as above; format: cell-based; conditions: peptide 200 μg/mL, CAMHB, 5 × 10^5 CFU/mL, 37°C, 12 h, OD600; control (no AMP) = 1; three biological replicates
How it was run: as §1

[5] = tested on: Escherichia coli ATCC 11775; test: as above; format: cell-based; conditions: peptide 200 μg/mL, CAMHB, 5 × 10^5 CFU/mL, 37°C, 12 h, OD600; control (no AMP) = 1; three biological replicates
How it was run: as §1

[6] = tested on: Micrococcus luteus ATCC 4698; test: as above; format: cell-based; conditions: peptide 200 μg/mL, CAMHB, 5 × 10^5 CFU/mL, 37°C, 12 h, OD600; control (no AMP) = 1; three biological replicates
How it was run: as §1

Vibrio owensii ems001 = test: as above; format: cell-based; conditions: peptide 200 μg/mL, CAMHB, 5 × 10^5 CFU/mL, 37°C, 12 h, OD600; control (no AMP) = 1; three biological replicates
How it was run: as §1

[7] = tested on: Bacillus subtilis ATCC 23857; test: as above; format: cell-based; conditions: peptide 200 μg/mL, CAMHB, 5 × 10^5 CFU/mL, 37°C, 12 h, OD600; control (no AMP) = 1; three biological replicates
How it was run: as §1

[8] = tested on: Salmonella bongori ATCC 43975; test: as above; format: cell-based; conditions: peptide 200 μg/mL, CAMHB, 5 × 10^5 CFU/mL, 37°C, 12 h, OD600; control (no AMP) = 1; three biological replicates
How it was run: as §1

Row | Molecule | Hemolysis ratio (%) at 8μg/mL (sheep red blood cells) [%] | Hemolysis ratio (%) at 16μg/mL (sheep red blood cells) [%] | Hemolysis ratio (%) at 32μg/mL (sheep red blood cells) [%] | Hemolysis ratio (%) at 64μg/mL (sheep red blood cells) [%] | Hemolysis ratio (%) at 128μg/mL (sheep red blood cells) [%] | Cytotoxicity CC50 [1] [µg/mL] | cell density relative to control, V. alginolyticus xv22 [2] | cell density relative to control, S. aureus ATCC 12600 [3] | cell density relative to control, A. baumannii ATCC 19606 [4] | cell density relative to control, E. coli ATCC 11775 [5] | cell density relative to control, M. luteus ATCC 4698 [6] | cell density relative to control, V. owensii ems001 (Vibrio owensii ems001) | cell density relative to control, B. subtilis ATCC 23857 [7] | cell density relative to control, S. bongori ATCC 43975 [8]
1 | CSCC[C@H](N)C(=O)N[C@@H](CCCCN)C(=O)N1CCC[C@H]1C(=O)N[C@@H](CS)C(=O)N[C@@H](CCCNC(=N)N)C(=O)N[C@@H](CCCCN)C(=O)N[C@@H](C)C(=O)N[C@@H](CC(C)C)C(=O)N[C@@H](Cc1c[nH]c2ccccc12)C(=O)N[C@@H](CO)C(=O)N[C@H](C(=O)N[C@@H](Cc1c[nH]c2ccccc12)C(=O)N[C@@H](CCCCN)C(=O)N[C@@H](CCCNC(=N)N)C(=O)N[C@@H](CCCCN)C(=O)N[C@@H](CS)C(=O)N[C@@H](CCCNC(=N)N)C(=O)N[C@@H](Cc1c[nH]cn1)C(=O)N[C@@H](CCC(=O)O)C(=O)O)C(C)C [Cand-196] (H-MKPCRKALWSVWKRKCRHE-OH) | 1.481 | 2.356 | 4.680 | 5.976 | 13.102 | 18.881 | – | – | – | – | – | – | – | –
2 | MVAVMKKLLLKYALK [Cand-82] | 2.395 | 3.214 | 3.498 | 2.486 | – | 10.864 | – | – | – | – | – | – | – | –
3 | MRIVMCRIGGRL [Cand-102] | 6.842 | 37.647 | 54.569 | – | 41.034 | 5.897 | – | – | – | – | – | – | – | –
4 | MCRFKCKVRTTITRPVCCWLIFM [Cand-168, chemically synthesized candidate AMP predicted from marine biofilm bacteria] | – | – | – | – | – | – | 0.418 | 1 | 1 | 0.553 | 1 | 0 | 0 | 0.482
5 | MLKLSWNLCRPIGRRW [Cand-186, chemically synthesized candidate AMP predicted from marine biofilm bacteria] | – | – | – | – | – | – | 0.192 | 0.112 | 0.276 | 0.036 | 0.164 | 0.091 | 0 | 0.245
6 | MLTTIAKSTKKCKPKSCCACSLYRC [Cand-216, chemically synthesized candidate AMP predicted from marine biofilm bacteria] | – | – | – | – | – | – | 0 | 0.86 | 1 | 0.832 | 0.978 | 0.018 | 0.845 | 0.556
7 | MICWCAKICCSCSAFRRWWKRNGTAC [Cand-57, chemically synthesized candidate AMP predicted from marine biofilm bacteria] | – | – | – | – | – | – | 0 | 0 | 0.653 | 0.456 | 1 | 0.002 | 0 | 0.134
8 | MCALKWFCKSLIRALNKAT [Cand-68, chemically synthesized candidate AMP predicted from marine biofilm bacteria] | – | – | – | – | – | – | 0.012 | 0 | 0 | 0 | 0.001 | 0 | 0 | 0.024
9 | MWTVRPRICAARGRL [Cand-172, chemically synthesized candidate AMP predicted from marine biofilm bacteria] | – | – | – | – | – | – | 0 | 0 | 1 | 1 | 0.9 | 0 | 0 | 0.898
10 | MFSKLVKVLLKALCHVFMKCTFW [Cand-61, chemically synthesized candidate AMP predicted from marine biofilm bacteria] | – | – | – | – | – | – | 1 | 0 | 0.884 | 1 | 1 | 0.001 | 0 | 0.633
11 | MPASRRCRPCCRLSGC [Cand-7, chemically synthesized candidate AMP predicted from marine biofilm bacteria] | – | – | – | – | – | – | 0.016 | 0.01 | 1 | 0.989 | 1 | 0.114 | 0.065 | 1
12 | MCTIRTCRRSRPHHCSTHC [Cand-101, chemically synthesized candidate AMP predicted from marine biofilm bacteria] | – | – | – | – | – | – | 0 | 0.01 | 0.879 | 0.967 | 0.91 | 1 | 0 | 0.855
13 | MRPCMCRIGGRL [Cand-19, chemically synthesized candidate AMP predicted from marine biofilm bacteria] | – | – | – | – | – | – | 1 | 1 | 1 | 1 | 1 | 1 | 1 | 0.929

— article PMC11683478, “Bioprospecting of culturable marine biofilm bacteria for novel antimicrobial peptides” (iMeta, 2024)
